Laboratory results published in PMC7689250, “Synthetic Peptide Libraries Designed From a Minimal Alpha-Helical Domain of AS-48-Bacteriocin Homologs Exhibit Potent Antibacterial Activity” (Frontiers in Microbiology, 2020).
Where two headings read alike, the source gives them in different places. Residues, ends and D or L forms follow the SMILES beside them.

Legend:
S. pyogenes (M1) = assay type: cell-based, Streptococcus pyogenes; conditions: for MBC: M1
Procedure: (§1) Peptides were screened against Escherichia coli (BL21), Streptococcus pyogenes (M1T1 5448, hereby referred to as M1), Pseudomonas aeruginosa (PAO1), and Staphylococcus aureus (USA300). Overnight bacterial cultures were grown in optimal media for each species: Luria-Bertani (LB) broth for E. coli, P. aeruginosa, and S. aureus, and Todd-Hewitt (TH) broth for S. pyogenes. Cultures were pelleted and re-suspended in Mueller-Hinton (MH) broth for peptide screens or minimal inhibitory concentration (MIC) assays, with 1 × 10^6 CFU/mL bacteria added per well ([Wiegand et al., 2008]). MICs for each parent peptide were identified against each bacterial strain as previously described ([Fields et al., 2018]). Members of each peptide library were screened against each bacterial strain at half of the MIC of the corresponding parent peptide to identify library members with increased antimicrobial activity relative to the parent peptide. […] Minimal bactericidal concentrations (MBCs) were determined following the respective MIC assays by plating aliquots from wells corresponding to each peptide concentration from the 96-well plate used for the MIC on species-appropriate agar. Plates were incubated at 37°C overnight, and MBCs were identified as the lowest concentrations of peptide at which no colonies were obtained. A Synergy H1 Microplate Reader (BioTek, Winooski, VT, United States) was used to determine the MICs and identify peptides with greater antimicrobial activity than the corresponding parent peptide by measuring OD 600 of the bacterial cultures in 96-well microtiter plates.

S. aureus (USA300) = assay type: cell-based, Staphylococcus aureus; conditions: for MBC: USA300; for MIC: USA300, 16 h
Procedure: as §1

P. aeruginosa (PAO1) = assay type: cell-based, Pseudomonas aeruginosa; conditions: for MBC: PAO1; for MIC: PAO1, 16 h
Procedure: as §1

E. coli (BL21) = assay type: cell-based, Escherichia coli; conditions: for MBC: BL21; for MIC: BL21, 16 h
Procedure: as §1

| SMILES | MBC (S. pyogenes (M1)) [µM] | MIC (S. pyogenes (M1); M1, 16 h) [µM] | MBC (S. aureus (USA300)) [µM] | MIC (S. aureus (USA300)) [µM] | MBC (P. aeruginosa (PAO1)) [µM] | MIC (P. aeruginosa (PAO1)) [µM] | MBC (E. coli (BL21)) [µM] | MIC (E. coli (BL21)) [µM] | MIC (S. pyogenes (M1); S. pyogenes M1) [µM] |
| --- | --- | --- | --- | --- | --- | --- | --- | --- | --- |
| CC[C@H](C)[C@H](NC(=O)[C@H](CCCCN)NC(=O)[C@H](CCCCN)NC(=O)[C@H](CCCCN)NC(=O)[C@H](CC(C)C)NC(=O)[C@H](Cc1ccccc1)NC(=O)[C@H](CCC(N)=O)NC(=O)[C@H](CCCNC(=N)N)NC(=O)[C@@H](NC(=O)[C@@H](NC(=O)[C@H](CCC(=O)O)NC(=O)[C@H](CCCCN)NC(=O)CNC(=O)[C@H](C)N)[C@@H](C)O)[C@@H](C)CC)C(=O)N[C@@H](CCC(N)=O)C(=O)N[C@@H](CCC(=O)O)C(=O)N[C@@H](CCCCN)C(=O)NCC(=O)N[C@@H](CCCCN)C(=O)N[C@@H](CCCNC(=N)N)C(=O)N[C@@H](C)C(=O)N[C@H](C(=O)N[C@H](C(=O)N[C@@H](C)C(=O)N[C@@H](Cc1c[nH]c2ccccc12)C(=O)O)[C@@H](C)CC)[C@@H](C)O [Syn-larvacin-1] (H-AGKETIRQFLKKKIQEKGKRATIAW-OH; N-terminus and C-terminus assumed) | 64 | 8 | >128 | >128 | >128 | >128 | >128 | 32 |  |
| CC[C@H](C)[C@H](NC(=O)[C@H](CCCCN)NC(=O)[C@H](CCCCN)NC(=O)CNC(=O)[C@H](CCC(=O)O)NC(=O)[C@H](CCC(N)=O)NC(=O)[C@@H](NC(=O)[C@H](Cc1c[nH]c2ccccc12)NC(=O)[C@H](CCCCN)NC(=O)[C@H](CCCCN)NC(=O)[C@H](CC(C)C)NC(=O)[C@H](CCCNC(=N)N)NC(=O)[C@H](CCC(N)=O)NC(=O)[C@H](Cc1ccccc1)NC(=O)[C@@H](NC(=O)[C@H](CCCCN)NC(=O)[C@H](CCC(=O)O)NC(=O)[C@@H](NC(=O)CNC(=O)[C@H](C)N)[C@@H](C)O)[C@@H](C)CC)[C@@H](C)CC)C(=O)N[C@@H](C)C(=O)N[C@@H](CCCCN)C(=O)N[C@@H](CCCNC(=N)N)C(=O)N[C@@H](C)C(=O)N[C@@H](Cc1c[nH]c2ccccc12)C(=O)O [Syn-larvacin-31] (H-AGTEKIFQRLKKWIQEGKKIAKRAW-OH; N-terminus and C-terminus assumed) | 0.25 | 0.25 | 8 | 8 | 128 | 64 | 1 | 1 |  |
| CC[C@H](C)[C@H](NC(=O)[C@H](CCCCN)NC(=O)[C@H](CCCCN)NC(=O)[C@H](Cc1c[nH]c2ccccc12)NC(=O)[C@H](CCC(=O)O)NC(=O)[C@H](CC(N)=O)NC(=O)[C@@H](NC(=O)[C@@H](NC(=O)[C@H](CCCCN)NC(=O)[C@H](CCCCN)NC(=O)[C@H](CC(C)C)NC(=O)[C@H](CCCNC(=N)N)NC(=O)[C@H](CC(N)=O)NC(=O)[C@H](Cc1ccccc1)NC(=O)[C@@H](NC(=O)[C@H](CCCCN)NC(=O)[C@H](CCC(=O)O)NC(=O)[C@@H](NC(=O)CNC(=O)[C@H](C)N)[C@@H](C)O)[C@@H](C)CC)[C@@H](C)O)[C@@H](C)CC)C(=O)N[C@@H](C)C(=O)N[C@@H](CCCCN)C(=O)N[C@@H](CCCNC(=N)N)C(=O)N[C@@H](C)C(=O)N[C@@H](Cc1c[nH]c2ccccc12)C(=O)O [Syn-larvacin-48] (H-AGTEKIFNRLKKTINEWKKIAKRAW-OH; N-terminus and C-terminus assumed) | 8 | 8 | 8 | 8 | 32 | 16 | 4 | 4 |  |
| CC[C@H](C)[C@H](NC(=O)[C@H](CCC(=O)O)NC(=O)[C@H](CCCNC(=N)N)NC(=O)[C@H](CCCNC(=N)N)NC(=O)[C@H](CC(C)C)NC(=O)[C@H](Cc1ccc(O)cc1)NC(=O)[C@H](C)NC(=O)[C@H](CCCCN)NC(=O)[C@@H](NC(=O)[C@@H](NC(=O)[C@H](CCC(N)=O)NC(=O)[C@H](CCCNC(=N)N)NC(=O)CNC(=O)[C@H](C)N)[C@@H](C)O)[C@@H](C)CC)C(=O)N[C@@H](CCCNC(=N)N)C(=O)N[C@@H](CCCCN)C(=O)N[C@@H](CCCNC(=N)N)C(=O)NCC(=O)N[C@@H](CCCNC(=N)N)C(=O)N[C@@H](CCCCN)C(=O)N[C@@H](C)C(=O)N[C@H](C(=O)N[C@H](C(=O)N[C@@H](C)C(=O)N[C@@H](Cc1c[nH]c2ccccc12)C(=O)O)[C@@H](C)CC)C(C)C [Syn-sordellicin-1] (H-AGRQTIKAYLRREIRKRGRKAVIAW-OH; N-terminus and C-terminus assumed) | 8 | 8 | >128 | >128 | 16 | 16 | 8 | 8 |  |
| CC[C@H](C)[C@H](NC(=O)[C@H](CCCNC(=N)N)NC(=O)[C@H](C)NC(=O)[C@H](CCCCN)NC(=O)[C@H](CCCNC(=N)N)NC(=O)CNC(=O)[C@@H](NC(=O)[C@H](CCCCN)NC(=O)[C@H](CCCNC(=N)N)NC(=O)[C@@H](NC(=O)[C@H](CCC(=O)O)NC(=O)[C@H](CCCNC(=N)N)NC(=O)[C@H](CCCNC(=N)N)NC(=O)[C@H](CC(C)C)NC(=O)[C@H](Cc1ccc(O)cc1)NC(=O)[C@H](C)NC(=O)[C@H](CCCCN)NC(=O)[C@@H](NC(=O)[C@H](Cc1c[nH]c2ccccc12)NC(=O)[C@H](CCC(N)=O)NC(=O)[C@H](CCCNC(=N)N)NC(=O)CNC(=O)[C@H](C)N)[C@@H](C)CC)[C@@H](C)CC)C(C)C)C(=O)N[C@@H](C)C(=O)N[C@@H](Cc1c[nH]c2ccccc12)C(=O)O [Syn-sordellicin-45] (H-AGRQWIKAYLRREIRKVGRKARIAW-OH; N-terminus and C-terminus assumed) | 2 | 2 | 32 | 32 | 32 | 16 | 1 | 1 |  |
| CC[C@H](C)[C@H](NC(=O)[C@H](Cc1ccccc1)NC(=O)[C@H](C)NC(=O)[C@H](CCCCN)NC(=O)[C@H](CCCCN)NC(=O)CNC(=O)[C@H](CCCNC(=N)N)NC(=O)[C@H](CCCCN)NC(=O)[C@H](CCCNC(=N)N)NC(=O)[C@H](CC(C)C)NC(=O)[C@H](CCC(=O)O)NC(=O)[C@H](CCC(=O)O)NC(=O)[C@H](CCCCN)NC(=O)[C@H](CC(C)C)NC(=O)[C@H](Cc1ccc(O)cc1)NC(=O)[C@H](CC(C)C)NC(=O)[C@@H](NC(=O)[C@H](CC(C)C)NC(=O)[C@H](C)NC(=O)[C@H](CCC(N)=O)NC(=O)[C@H](CCCNC(=N)N)NC(=O)CNC(=O)[C@H](C)N)[C@@H](C)O)C(=O)N[C@@H](C)C(=O)N[C@@H](Cc1c[nH]c2ccccc12)C(=O)O [Syn-xiamencin-1] (H-AGRQALTLYLKEELRKRGKKAFIAW-OH; N-terminus and C-terminus assumed) | 16 | 16 | >128 | >128 | >128 | >128 | 32 | 32 |  |
| CC[C@H](C)[C@H](NC(=O)[C@H](CCCCN)NC(=O)CNC(=O)[C@H](Cc1ccccc1)NC(=O)[C@H](CCCCN)NC(=O)[C@H](CCCNC(=N)N)NC(=O)[C@H](CC(C)C)NC(=O)[C@H](Cc1ccc(O)cc1)NC(=O)[C@H](CCC(=O)O)NC(=O)[C@H](CC(C)C)NC(=O)[C@H](CC(C)C)NC(=O)[C@H](CCC(=O)O)NC(=O)[C@H](CCCCN)NC(=O)[C@@H](NC(=O)[C@H](CC(C)C)NC(=O)[C@H](CCCNC(=N)N)NC(=O)[C@H](CCC(N)=O)NC(=O)[C@H](C)NC(=O)CNC(=O)[C@H](C)N)[C@@H](C)O)C(=O)N[C@@H](C)C(=O)N[C@@H](CCCNC(=N)N)C(=O)N[C@@H](CCCCN)C(=O)N[C@@H](C)C(=O)N[C@@H](Cc1c[nH]c2ccccc12)C(=O)O [Syn-xiamencin-7] (H-AGAQRLTKELLEYLRKFGKIARKAW-OH; N-terminus and C-terminus assumed) | 0.5 |  | >128 | >128 | 128 | 64 | 4 | 4 | 0.5 |
| CC[C@H](C)[C@H](NC(=O)[C@H](CCCNC(=N)N)NC(=O)[C@H](C)NC(=O)[C@H](CCCCN)NC(=O)[C@H](CCCCN)NC(=O)CNC(=O)[C@H](Cc1ccccc1)NC(=O)[C@H](CCCCN)NC(=O)[C@H](CCCNC(=N)N)NC(=O)[C@H](CC(C)C)NC(=O)[C@H](CCC(=O)O)NC(=O)[C@H](CCC(=O)O)NC(=O)[C@H](CCCCN)NC(=O)[C@H](CC(C)C)NC(=O)[C@H](Cc1ccc(O)cc1)NC(=O)[C@H](CC(C)C)NC(=O)[C@@H](NC(=O)[C@H](CC(C)C)NC(=O)[C@H](C)NC(=O)[C@H](CCC(N)=O)NC(=O)[C@H](CCCNC(=N)N)NC(=O)CNC(=O)[C@@H](N)Cc1c[nH]c2ccccc12)[C@@H](C)O)C(=O)N[C@@H](C)C(=O)N[C@@H](Cc1c[nH]c2ccccc12)C(=O)O [Syn-xiamencin-13] (H-WGRQALTLYLKEELRKFGKKARIAW-OH; N-terminus and C-terminus assumed) | 0.25 |  | >128 | >128 | >128 | >128 | 32 | 16 | 0.25 |
